The values below come from ChEMBL document CHEMBL4742385 (2019).

The subject of one assay is RPMI-8226. Nature of the assay: Antiproliferative activity against human RPMI-8226 assessed as inhibition of cell growth at 1 uM after 8 days measured after Celltiter-Glo assay relative to control. The assay is classed as functional. To be noted: time 8 day; for inhibition at 1 µM: Homo sapiens, RPMI-8226, 192 h. A general note: ATP-based viability assays read luminescence as a measure of living cells.

Assay [1] concerns the target CDK8/Cyclin C (Homo sapiens) (UniProt P49336+P24863). Nature of the assay: Inhibition of human CDK8/Cyc C expressed in Sf21 cells at 1 uM measured after 1 hr by fluorescence plate reader relative to control.
Assay [2] has as its target Cyclin-C/Cyclin-dependent kinase 19 (Homo sapiens) (UniProt Q9BWU1+P24863). Nature of the assay: Inhibition of humanGST-tagged CDK19/Cyc C expressed in Sf21 cells at 1 uM measured after 1 hr by fluorescence plate reader relative to control.

Values joined by “and” are separate entries in the source; they are usually repeats but may differ in a detail not shown here. Equal entries are not always repeated.

As to `O=C(/C=C/c1cnccc1-c1cnn(C2CC2)c1)Nc1ccc(CN2CC(F)(F)C2)cc1.O=C(O)CCC(=O)O`, the “inhibition (INH)” value in the assay on RPMI-8226 was 66%.
In the case of `CCn1cc(-c2ccncc2CCC(=O)Nc2ccc(CN3CCOCC3)cc2)cn1`, the inhibition in assay [1] came to 90%; in assay [2] it was 85%. In the assay with RPMI-8226, the inhibition at 1 µM worked out at 62%.
`O=C(/C=C/c1cncc(F)c1-c1cnn(C2CC2)c1)Nc1ccc2c(c1)OCCO2`: the inhibition in assay [1] was 103%; in assay [2] it was 98%. Also, the inhibition at 1 µM in the assay with RPMI-8226 amounted to 65%.
As to `COC(C)c1ccc(NC(=O)/C=C/c2cnccc2-c2cnn(C3CC3)c2)cc1` (stereo unspecified), the inhibition in assay [1] stood at 102%; in assay [2], 93%. Moreover, in the assay with RPMI-8226, the inhibition at 1 µM turned out to be 62%.
The corresponding values for `CC(c1ccc(NC(=O)/C=C/c2cnccc2-c2cnn(C)c2)cc1)N1CCOCC1` (stereo unspecified) are 96%, 98% and 57%.
In the case of `CN(C)CCOc1ccc(NC(=O)/C=C/c2cnccc2-c2cnn(C)c2)cc1`, the figures for the inhibition in assay [1] and in assay [2] were 99% and 93%, respectively. Moreover, in the assay on RPMI-8226, the inhibition at 1 µM came out at 60%.
The corresponding values for `CC1CN(Cc2ccc(NC(=O)/C=C/c3cnccc3-c3cnn(C)c3)cc2)CCO1` (stereo unspecified) are 99%, 97% and 55%.
Taken in the same sequence, the figures for `COCc1ccc(NC(=O)/C=C/c2cnccc2-c2cnn(C)c2)cc1` were 100%, 100% and 65%.
The corresponding values for `Cn1cc(-c2ccncc2/C=C/C(=O)Nc2ccc(CC#N)cc2)cn1` are 92%, 95% and 57%.
Turning to `O=C(/C=C/c1cnccc1-c1ccc2[nH]ncc2c1)Nc1ccc(CN2CCOCC2)cc1`, the inhibition in assay [1] was found to be 96%; in assay [2], 97%. Moreover, the inhibition at 1 µM in the assay on RPMI-8226 worked out at 55%.
As to `CC(C)(O)Cc1ccc(NC(=O)/C=C/c2cncc(F)c2-c2cnn(C3CC3)c2)c(F)c1`, the inhibition was determined as 102% in assay [1] and 99% in assay [2]. Further, in the assay with RPMI-8226, the inhibition at 1 µM came to 60%.
The corresponding values for `Cn1cc(-c2ccncc2/C=C/C(=O)Nc2ccc(CN3CCOCC3)c(C#N)c2)cn1` are 100%, 99% and 54%.
Consider `Cn1cc(-c2ccncc2/C=C/C(=O)Nc2ccc(CC(F)(F)F)cc2)cn1`, for which the inhibition in assay [1] was 99%; in assay [2] it was 92%. In addition, the inhibition at 1 µM in the assay on RPMI-8226 amounted to 60%.
Taken in the same sequence, the figures for `Cn1cc(-c2ccncc2/C=C/C(=O)Nc2ccc(CN3CC(F)(F)OC(F)(F)C3)cc2)cn1` were 97%, 98% and 55%.
Regarding `CC(=O)N(C)Cc1cc(NC(=O)/C=C/c2cnccc2-c2cnn(C)c2)ccc1C`, the inhibition in assay [1] stood at 95%; in assay [2], 93%. In the assay on RPMI-8226, the inhibition at 1 µM worked out at 49%.
The corresponding values for `O=C(/C=C/c1cnccc1-c1cnn(Cc2ccccc2)c1)Nc1ccc(CN2CCOCC2)cc1` are 101%, 101% and 63%.
The corresponding values for `O=C(/C=C/c1cncc(F)c1-c1cnn(C2CC2)c1)Nc1ccc(CN2CC3CC(C2)O3)cc1` are 102%, 101% and 59%.
For the compound `O=C(/C=C/c1cnccc1-c1cnn2ccccc12)Nc1ccc(CN2CCOCC2)cc1`, the inhibition is 98% in assay [1] and 97% in assay [2]. Also, the inhibition at 1 µM in the assay with RPMI-8226 turned out to be 55%.
Taken in the same sequence, the figures for `Cn1cc(-c2ccncc2/C=C/C(=O)Nc2ccc(N3CCOCC3)c(Cl)c2)cn1` were 102%, 100% and 60%.
Taken in the same sequence, the figures for `Cn1cnc2ccc(-c3c(F)cncc3/C=C/C(=O)Nc3ccc(CN4CC(F)(F)C4)cc3)cc21` were 87%, 101% and 67%.
Taken in the same sequence, the figures for `Cn1cc(-c2ccncc2/C=C/C(=O)Nc2ccc(Cn3cccn3)cc2)cn1` were 102%, 97% and 53%.
Consider `Cn1cc(-c2ccncc2/C=C/C(=O)Nc2ccc(CN3CCOC(C)(C)C3)cc2)cn1`, for which the inhibition was determined as 97% in assay [1] and 101% in assay [2]. For the same compound, the inhibition at 1 µM in the assay on RPMI-8226 was 61%.
Turning to `O=C(/C=C/c1cnccc1-c1cnsc1)Nc1ccc(CN2CCOCC2)cc1`, the results for the inhibition in assay [1] and in assay [2] were 90% and 94%, respectively. Moreover, the inhibition at 1 µM with RPMI-8226 was determined as 51%.
Taken in the same sequence, the figures for `Cn1cnc2ccc(-c3c(F)cncc3/C=C/C(=O)Nc3ccc4c(c3)CN(CC(F)(F)F)C4)cc21` were 101%, 96% and 69%.
Taken in the same sequence, the figures for `O=C(/C=C/c1cnccc1-c1cnn(CC2CC2)c1)Nc1ccc(CN2CCOCC2)cc1` were 98%, 99% and 55%.
In the case of `O=C(/C=C/c1cnccc1-c1ccc2nccn2c1)Nc1ccc(CN2CCOCC2)cc1`, the values for the inhibition in assay [1] and in assay [2] were 101% and 100%, respectively. Also, in the assay on RPMI-8226, the inhibition at 1 µM amounted to 52%.
As for `Cn1cc(-c2ccncc2/C=C/C(=O)Nc2ccc(CNC3CC3)cc2)cn1`, the inhibition in assay [1] stood at 95%; in assay [2], 96%. For the same compound, in the assay on RPMI-8226, the inhibition at 1 µM was determined as 56%.
`O=C(/C=C/c1cnccc1-c1cnn(C2CC2)c1)Nc1ccc(COCC(F)(F)F)cc1F`: the inhibition in assay [1] was 101%; in assay [2] it was 96%. Further, the inhibition at 1 µM in the assay with RPMI-8226 is 53%.
Taken in the same sequence, the figures for `Cn1cc(-c2ccncc2/C=C/C(=O)Nc2ccc(CCC(F)(F)F)cc2)cn1` were 98%, 99% and 53%.
The corresponding values for `O=C(/C=C/c1cnccc1-c1cnn(C2CC2)c1)Nc1ccc2c(c1)CN(CC(F)(F)F)C2` are 103%, 101% and 47%.
Consider `Cn1cnc2ccc(-c3ccncc3/C=C/C(=O)Nc3ccc4c(ccn4CC(F)(F)F)c3)cc21`, for which the inhibition in assay [1] worked out at 85%; in assay [2], 84%. The inhibition at 1 µM in the assay on RPMI-8226 is 63%.
Regarding `Cc1noc(C)c1-c1ccc(NC(=O)/C=C/c2cnccc2-c2cnn(C3CC3)c2)c(F)c1`, the inhibition turned out to be 103% in assay [1] and 98% in assay [2]. For the same compound, in the assay with RPMI-8226, the inhibition at 1 µM came out at 58%.
The corresponding values for `O=C(/C=C/c1cnccc1-c1cn[nH]c1)Nc1ccc(CN2CCOCC2)cc1` are 100%, 99% and 61%.
Taken in the same sequence, the figures for `O=C(/C=C/c1cnccc1-c1cnn(C2CC2)c1)Nc1ccc2c(c1)CN(CC(F)(F)CO)C2` were 102%, 96% and 65%.
For the compound `O=C(/C=C/c1cnccc1-c1cnn(C2CC2)c1)Nc1ccc(CN2CC(F)(F)C2)cc1.O=P(O)(O)O.O=P(O)(O)O`, the “inhibition (INH)” value with RPMI-8226 is recorded as 69%.
In the case of `COC(C)(C)Cc1ccc(NC(=O)/C=C/c2cnccc2-c2cnn(C3CC3)c2)cc1`, the inhibition turned out to be 101% in assay [1] and 94% in assay [2]. In addition, the inhibition at 1 µM with RPMI-8226 turned out to be 67%.
Regarding `COC1CN(Cc2ccc(NC(=O)/C=C/c3cncc(F)c3-c3cnn(C4CC4)c3)c(F)c2)C1`, the results for the inhibition in assay [1] and in assay [2] were 103% and 96%, respectively. Moreover, in the assay with RPMI-8226, the inhibition at 1 µM came to 63%.
The corresponding values for `O=C(/C=C/c1cnccc1-c1cnn(C2CC2)c1)Nc1ccc(COC(F)F)cc1` are 97%, 93% and 52%.
Consider `Cn1cc(-c2ccncc2/C=C/C(=O)Nc2ccc(CN3CCOCC3)c(F)c2)cn1`, for which the inhibition in assay [1] is 99%; in assay [2], 97%. Moreover, the inhibition at 1 µM in the assay with RPMI-8226 was 62%.
In the case of `O=C(/C=C/c1cnccc1-c1cnn(C2CC2)c1)Nc1ccc(CN2CC(F)(F)C2)cc1`, the inhibition is 102% [middle of 6 runs] in assay [1]; 101% (3×) and 100% (3×) in assay [2].
For the compound `CC1COCCN1Cc1ccc(NC(=O)/C=C/c2cnccc2-c2cnn(C)c2)cc1` (stereo unspecified), the inhibition turned out to be 100% in assay [1] and 95% in assay [2]. Further, the inhibition at 1 µM in the assay on RPMI-8226 was 55%.
The corresponding values for `O=C(/C=C/c1cnccc1-c1cnn(C2CC2)c1)Nc1ccc2c(c1)CN(CC(F)(F)F)CC2` are 98%, 102% and 63%.
Taken in the same sequence, the figures for `O=C(/C=C/c1cnccc1-c1cnn(C2CC2)c1)Nc1ccc2c(c1)CN(CC(F)(F)C(F)(F)F)CC2` were 97%, 94% and 57%.
The corresponding values for `Cn1cc(-c2ccncc2/C=C/C(=O)Nc2ccc3c(c2)OCC3)cn1` are 100%, 94% and 55%.
On to `COC1CN(Cc2ccc(NC(=O)/C=C/c3cnccc3-c3cnn(C4CC4)c3)cc2)C1`, for which the inhibition stood at 101% in assay [1] and 99% in assay [2]. Besides, in the assay on RPMI-8226, the inhibition at 1 µM was determined as 59%.
The corresponding values for `Cn1cc(-c2ccncc2/C=C/C(=O)Nc2ccc3cc[nH]c3c2)cn1` are 98%, 93% and 54%.
In the case of `O=C(/C=C/c1cnccc1-c1cnn(C2CC2)c1)Nc1ccc(CN2CC(F)(F)C2)cc1.O=S(=O)(O)O`, the “inhibition (INH)” value with RPMI-8226 is reported as 70%.
Still for that read-out and setting: next, `O=C(/C=C/c1cnccc1-c1cnn(C2CC2)c1)Nc1ccc(CN2CC(F)(F)C2)cc1.O=C(O)/C=C/C(=O)O`: 70%; `CS(=O)(=O)O.O=C(/C=C/c1cnccc1-c1cnn(C2CC2)c1)Nc1ccc(CN2CC(F)(F)C2)cc1`: 70%.

Usually inhibition stands for the relative decrease from the control value, in per cent.
